Data taken from PMC8001250 (Biomolecules, 2021).
≈ marks a conversion by molar mass, not a printed value. Entries after “also recorded” stand apart in the source; their conditions may differ. Like-named read-outs stand apart in the source and are kept apart here. Non-standard residues stand in square brackets, D forms with d. Residues, ends and D or L forms follow the SMILES beside them. Ala(azulen-1-yl) = N[C@@H](Cc1ccc2cccccc1-2)C(=O)O

Key:
[1] = system: P. aeruginosa PA-01; type: cell-based; settings: PA-01, 18 h
Method: (§1) Bacteria were streaked from frozen glycerol stocks onto LB agar plates (E. coli D31, S. aureus ATCC 35556, P. aeruginosa PA-01, A. baumannii ATCC 19609). The plates were incubated at 37 °C for ~18 h to allow growth. An individual colony from each plate was transferred into individual sterile tubes containing 3 mL of Muller Hinton (MH) broth and subsequently incubated for 18 h with shaking (225 rpm) at 37 °C. An aliquot of this culture was then diluted with fresh MH broth (1:250) and further incubated with shaking (225 rpm) at 37 °C until an OD600 of 0.2–0.4 was reached. This mid-log culture was then diluted to 5 × 10^5 CFU/mL in fresh MH broth. Serially diluted peptides were dispensed in a 96-well plate such that the final concentration in each well would be in the range of 15 µM to 0.234 µM. Then, 90 µL of the freshly diluted culture was transferred to the 96-well plate, yielding a final volume of 100 µL. The 96-well plate was covered and transferred to a humidified incubator at 37 °C for 18 h. The growth and inhibition of bacterial growth were determined by measuring OD600 directly in the plate and comparing to an untreated control. The Minimum Bactericidal Concentration (MBC) was determined by transferring 1 µL of culture from each well of the MIC plate onto fresh LB agar plates and allowed to incubate overnight at 37 °C.

[2] = system: S. aureus ATCC 35556; type: cell-based; settings: ATCC 35556, 18 h
Method: as §1

[3] = system: A. baumannii ATCC 19609; type: cell-based; settings: ATCC 19609, 18 h
Method: as §1

[4] = system: trypsin; assay: trypsin (50 µL of 0.001 mg/mL solution) in buffer (50 mM sodium phosphate, 100 mM NaCl, pH 7.0); settings: room temperature, up to 4 hours
[5] = system: A. baumannii ATCC 19609; settings: previously reported activity of the parent peptide; ref [30]; cited from earlier work
Excerpt: Table 2 Bacterial growth inhibition/killing concentration (µM). | column: A. baumannii

[6] = system: P. aeruginosa PA-01; settings: previously reported activity of the parent peptide; ref [30]; cited from earlier work
Excerpt: Table 2 Bacterial growth inhibition/killing concentration (µM). | column: P. aeruginosa

[7] = system: S. aureus ATCC 35556; settings: previously reported activity of the parent peptide; ref [30]; cited from earlier work
Excerpt: Table 2 Bacterial growth inhibition/killing concentration (µM). | column: S. aureus

[8] = system: E. coli D31; settings: previously reported activity of the parent peptide; ref [30]; cited from earlier work
Excerpt: Table 2 Bacterial growth inhibition/killing concentration (µM). | column: E. coli

Row | Molecule | MBC, P. aeruginosa [1] [µM] | MIC, P. aeruginosa [1] [µM] | MBC, S. aureus [2] [µM] | MIC, S. aureus [2] [µM] | MBC, A. baumannii [3] [µM] | MIC, A. baumannii [3] [µM] | fragment found [4] | MBC, A. baumannii [5] [µM] | MIC, A. baumannii [5] [µM] | MBC, P. aeruginosa [6] [µM] | MIC, P. aeruginosa [6] [µM] | MBC, S. aureus [7] [µM] | MIC, S. aureus [7] [µM] | MBC, E. coli [8] [µM] | MIC, E. coli [8] [µM]
1 | CC[C@H](C)[C@H](NC(=O)[C@H](Cc1ccc2cccccc1-2)NC(=O)[C@@H](NC(=O)[C@H](Cc1c[nH]c2ccccc12)NC(=O)[C@@H]1CCCN1C(=O)[C@@H](NC(=O)[C@H](C)N)[C@@H](C)CC)[C@@H](C)CC)C(=O)N[C@@H](Cc1c[nH]c2ccccc12)C(=O)N[C@@H](CCCNC(=N)N)C(=O)N[C@@H](CC(C)C)C(=O)N[C@@H](CC(C)C)C(=O)N[C@@H](CCCNC(=N)N)C(=O)N[C@@H](CCCCN)C(=O)NCC(N)=O [Peptide Z6] (H-AIPWI[Ala(azulen-1-yl)]IWRLLRKG-NH2) | >15 | >15 | 1.88 (≈ 3.42 µg/mL) | 1.88 (≈ 3.42 µg/mL) | 7.50 (≈ 13.6 µg/mL) | 3.75 (≈ 6.82 µg/mL) | – | – | – | – | – | – | – | – | –
2 | AIPWIWIWRLLRKG | – | – | – | – | – | – | AIPWIWIWR; also recorded: AIPWIWIWRLLR | – | – | – | – | – | – | – | –
3 | H-AIPWIWIWRLLRKG-NH2 [WWW] | – | – | – | – | – | – | – | 3.75 | 3.75 | >15 | 15.00 | 3.75 | 3.75 | 7.50 | 7.50
4 | CC[C@H](C)[C@H](NC(=O)[C@H](Cc1c[nH]c2ccccc12)NC(=O)[C@@H](NC(=O)[C@H](Cc1c[nH]c2ccccc12)NC(=O)[C@@H]1CCCN1C(=O)[C@@H](NC(=O)[C@H](C)N)[C@@H](C)CC)[C@@H](C)CC)C(=O)N[C@@H](Cc1ccc2cccccc1-2)C(=O)N[C@@H](CCCNC(=N)N)C(=O)N[C@@H](CC(C)C)C(=O)N[C@@H](CC(C)C)C(=O)N[C@@H](CCCNC(=N)N)C(=O)N[C@@H](CCCCN)C(=O)NCC(N)=O [Peptide Z8] (H-AIPWIWI[Ala(azulen-1-yl)]RLLRKG-NH2) | >15 | >15 | 15.00 (≈ 27.3 µg/mL) | 7.50 (≈ 13.6 µg/mL) | 7.50 (≈ 13.6 µg/mL) | 7.50 (≈ 13.6 µg/mL) | – | – | – | – | – | – | – | – | –
5 | CC[C@H](C)[C@H](NC(=O)[C@H](Cc1c[nH]c2ccccc12)NC(=O)[C@@H](NC(=O)[C@H](Cc1ccc2cccccc1-2)NC(=O)[C@@H]1CCCN1C(=O)[C@@H](NC(=O)[C@H](C)N)[C@@H](C)CC)[C@@H](C)CC)C(=O)N[C@@H](Cc1c[nH]c2ccccc12)C(=O)N[C@@H](CCCNC(=N)N)C(=O)N[C@@H](CC(C)C)C(=O)N[C@@H](CC(C)C)C(=O)N[C@@H](CCCNC(=N)N)C(=O)N[C@@H](CCCCN)C(=O)NCC(N)=O [Peptide Z4] (H-AIP[Ala(azulen-1-yl)]IWIWRLLRKG-NH2) | >15 | >15 | 7.50 (≈ 13.6 µg/mL) | 7.50 (≈ 13.6 µg/mL) | 7.50 (≈ 13.6 µg/mL) | 7.50 (≈ 13.6 µg/mL) | – | – | – | – | – | – | – | – | –
